In patent US8859574B2 (IRM LLC, priority 2008, dated 2014) one finds IC50 data, which are given here for eleven molecules.

The target in this assay is T1, IGF-1R Ba/F3 (Homo sapiens, UniProt P08069).
T1 construct: fused on or other part: TEL- (or BCR-) IGF-1R in Ba/F3: the kinase part holds the site
T1 sequence (P08069 999-1274 limits assumed): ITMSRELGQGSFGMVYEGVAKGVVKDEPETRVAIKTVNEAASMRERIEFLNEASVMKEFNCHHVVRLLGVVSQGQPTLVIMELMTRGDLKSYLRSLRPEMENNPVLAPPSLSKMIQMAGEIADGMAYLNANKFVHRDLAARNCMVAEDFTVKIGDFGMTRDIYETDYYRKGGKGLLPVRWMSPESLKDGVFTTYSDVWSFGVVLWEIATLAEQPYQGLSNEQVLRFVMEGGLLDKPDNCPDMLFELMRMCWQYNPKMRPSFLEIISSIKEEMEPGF
The assay can be described thus: Ba/F3 Cell Viability Inhibition Assay (IGF-1R Ba/F3). The format is cell-based, murine. The settings on record: Tel-TK transformed Ba/F3 cells, 48 hours, Britelite luminescence. The source says: The IC50 of a drug may be determined constructing a dose-response curve and examining the effect of different concentrations of antagonist on reversing agonist activity. IC50 values may be calculated for a given antagonist by determining the concentration needed to inhibit half of the maximum biological response of the agonist. To calculate IC50 values, a series of dose-response data (e.g., drug concentrations x1, x2, . . . , xn and growth inhibition y1, y2, . . . , yn, the values of y are in the range of 0-1) is generated. IC50 values may be determined by a computer-aided system using the formula: y=D+((A−D)/(1+10^(x-log(IC50)B) • where A is the ratio of growth inhibition between lowest drug concentration and control; B is the slope of sigmoidal curvel; and D is the ratio of growth inhibition between highest drug concentration and control.
Ba/F3 is a murine IL-3-dependent pro-B lymphoma cell line. Parental Ba/F3 cells are used to generate a panel of sublines whose proliferation and survival is rendered IL-3-independent by stable transduction with individual tyrosine kinases activated by fusion with the amino-terminal portion of TEL (amino acid 1-375) or BCR. In order to generate Ba/F3 cell lines transformed by Tel-Tyrosine Kinase (TK) fusions, parental Ba/F3 cells are infected with a retrovirus harboring each TEL-fusion kinase and subjected to puromycin selection and IL-3 withdrawal to obtain IL-3-independent, transformed Ba/F3 cells.
Each transformed Ba/F3 cells are cultured in RPMI-1640 media (Gibco Cat #11875093, Carlsbad, Calif.) supplemented with 10% FBS (Hyclone Cat #SV30014.03, Logan, Utah), 4.5 g/L glucose (Sigma #G5400, St. Louis, Mo.), 1.5 g/L sodium bicarbonate (Biowhittaker #17-613E, Walkersville, Md.) and Pen/Strep (Gibco #10378-016, Carlsbad, Calif.). Cells are splitted twice weekly.
The potency of test compounds against various Tel-TK transformed Ba/F3 lines is determined as follows. Exponentially growing BaF3 Tel-TK cells are diluted in fresh medium to 75,000 cells/mL and seeded into 384-well plates (3750 cells/well) at 50 μL/well using a μFill liquid dispenser (BioTek, Winooski, Vt., USA). Duplicate plates are run for each cell line. Test and control compounds are serially diluted with DMSO and arrayed in a polypropylene 384-well plate. […] of compound is transferred into the assay plates using a pin-transfer device, and the plates are incubated at 37° C. (5% CO2) for 48 hours. 25 μL Britelite (Perkin Elmer) is added and luminescence is quantified using Analyst GT (Molecular Devices). Custom curve-fitting software is used to produce a logistic fit of percent cell viability as a function of the logarithm of inhibitor concentration. The IC50 is interpolated as the concentration of compound needed to reduce cell viability to 50% of a DMSO control. Parental Ba/F3 cells that are maintained and cultured in presence of IL-3 (1 ng/ml in final) are diluted in fresh medium containing IL-3 (1 ng/ml in final) to 75,000 cells/mL following the same procedure as described above.
The molecule `Cc1cc(Nc2nc(Nc3cc(C)c(C4CCN(C5COC5)CC4)cc3F)ncc2Cl)n[nH]1` [Compound 306, 5-chloro-N2-(2-fluoro-5-methyl-4-(1-(oxetan-3-yl)piperidin-4-yl)phenyl)-N4-(5-methyl-1H-pyrazol-3-yl)pyrimidine-2,4-diamine] yielded a concentration for half-maximal inhibition (IC50) of 15 nM.

The molecule `COc1cc(Nc2ncc(Cl)c(Nc3cc(C)[nH]n3)n2)c(C)cc1C1CCN(C)CC1` [Compound 219, 5-chloro-N2-(5-methoxy-2-methyl-4-(1-methylpiperidin-4-yl)phenyl)-N4-(5-methyl-1H-pyrazol-3-yl)pyrimidine-2,4-diamine] returned an IC50 of 9 nM. Against the preceding molecule, the IC50 is about 1.7-fold lower.

`Cc1cc(Nc2nc(Nc3cc(C)c(C4CCN(C(C)C(N)=O)CC4)cc3F)ncc2C(F)(F)F)n[nH]1` (centres unmarked) [Compound 53, 2-(4-(5-fluoro-2-methyl-4-(4-(5-methyl-1H-pyrazol-3-ylamino)-5-(trifluoromethyl)pyrimidin-2-ylamino)phenyl)piperidin-1-yl)propanamide] had an IC50 of 78 nM.

`Cc1cc(Nc2nc(Nc3cc(C)c(C4CCN(C5CCOCC5)CC4)cc3F)ncc2Cl)n[nH]1` [Compound 209, 5-chloro-N^2-(2-fluoro-5-methyl-4-(1-(tetrahydro-2H-pyran-4-yl)piperidin-4-yl)phenyl)-N^4-(5-methyl-1H-pyrazol-3-yl)pyrimidine-2,4-diamine] gave an IC50 of 27 nM.

Consider `Cc1cc(Nc2nc(Nc3cc(C)c(C4CCN(C=O)CC4)cc3F)ncc2Cl)n[nH]1` [Compound 206, 4-(4-(5-chloro-4-(5-methyl-1H-pyrazol-3-ylamino)pyrimidin-2-ylamino)-5-fluoro-2-methylphenyl)piperidine-1-carbaldehyde], for which the midpoint of inhibition, the IC50, lay at 30 nM.

As to `Cc1cc(Nc2nc(Nc3cc(C)c(C4CCN(C(=O)C5(N)CC5)CC4)cc3F)ncc2Cl)n[nH]1` [Compound 93, (1-aminocyclopropyl)(4-(4-(5-chloro-4-(5-methyl-1H-pyrazol-3-ylamino)pyrimidin-2-ylamino)-5-fluoro-2-methylphenyl)piperidin-1-yl)methanone], half-maximal inhibition (IC50) was put at 33 nM.

Molecule `COC(=O)c1cc(Nc2ncc(Cl)c(Nc3cc(C)[nH]n3)n2)c(C)cc1C1CCN(C)CC1` [Compound 287, methyl 5-(5-chloro-4-(5-methyl-1H-pyrazol-3-ylamino)pyrimidin-2-ylamino)-4-methyl-2-(1-methylpiperidin-4-yl)benzoate] had a concentration for half-maximal inhibition (IC50) of 27 nM. The IC50 values of the last two molecules are within 1.5-fold of each other.

Consider `Cc1cc(Nc2nc(Nc3cc(C)c(C4CCN(Cc5noc(C(C)C)n5)CC4)cc3F)ncc2Cl)n[nH]1` [Compound 285, 5-chloro-N2-(2-fluoro-4-(1-((5-isopropyl-1,2,4-oxadiazol-3-yl)methyl)piperidin-4-yl)-5-methylphenyl)-N4-(5-methyl-1H-pyrazol-3-yl)pyrimidine-2,4-diamine], for which inhibition was half-maximal at 68 nM (IC50).

`Cc1cc(Nc2nc(Nc3cc(C)c(C4CCN(CCC(=O)N5CCCC5)CC4)cc3F)ncc2Cl)n[nH]1` [Compound 242, 3-(4-(4-(5-chloro-4-(5-methyl-1H-pyrazol-3-ylamino)pyrimidin-2-ylamino)-5-fluoro-2-methylphenyl)piperidin-1-yl)-1-(pyrrolidin-1-yl)propan-1-one] returned a concentration for half-maximal inhibition (IC50) of 60 nM.

Consider `Cc1cc(Nc2nc(Nc3cc(C)c(C4CCN(Cc5noc(C(C)(C)C)n5)CC4)cc3C)ncc2Cl)n[nH]1` [Compound 266, N2-(4-(1-((5-tert-butyl-1,2,4-oxadiazol-3-yl)methyl)piperidin-4-yl)-2,5-dimethylphenyl)-5-chloro-N4-(5-methyl-1H-pyrazol-3-yl)pyrimidine-2,4-diamine], for which half-maximal inhibition (IC50) was put at 25 nM.

Regarding `Cc1cc(Nc2nc(Nc3cc(C)c(C4CCN(S(=O)(=O)CCCN5CCCC5)CC4)cc3C)ncc2Cl)n[nH]1` [Compound 233, 5-chloro-N2-(2,5-dimethyl-4-(1-(3-(pyrrolidin-l-yl)propylsulfonyl)piperidin-4-yl)phenyl)-N4-(5-methyl-1H-pyrazol-3-yl)pyrimidine-2,4-diamine], the midpoint of inhibition, the IC50, lay at 54 nM. Against the preceding molecule, the IC50 is about 2.2-fold higher.

As a reminder, the IC50 is the concentration that gives 50% inhibition. A low value points to inhibition by little substance.
